The values below come from patent US9783536B2, “Nitrogen-containing heterocyclic compound or salt thereof” (FUJIFILM Corporation, priority 2013, dated 2017).

Structures can show the parent of a compound that is named as a salt.

Common to all, as to format: biochemical
One test has as its target T1, human PI3Kα protein (Homo sapiens, UniProt P42336).
T1 construct: purchased Carna Biosciences, Inc; host or cells: baculovirus expression system
As to the kind of experiment: PI3Kα enzyme assay (ADP-Glo). The settings on record: 4.5 nmol/L PI3Kα, PIP2 50 μmol/L, ATP 100 μmol/L; read-out: PI3Kα enzyme inhibitory activity. The method, boiled down: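 Biotinylated human PI3Kα (baculovirus-expressed, 4.5 nmol/L) pre-incubated 15 min with compound in Tris-HCl pH 7.5, MgCl2, BSA; reaction 60 min at 25° C with 50 μmol/L PIP2 and 100 μmol/L ATP final. ADP quantified by ADP-Glo luminescence; IC50 calculated.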

Test [1] concerns the target T2, GST fusion human ERK2 protein (Homo sapiens, UniProt P28482).
T2 construct: purchased Carna Biosciences, Inc; host or cells: E. coli expression system
Nature of the test: ERK2 enzyme assay (1). The note with it: read-out: ERK2 enzyme inhibitory activity (1). A digest of the protocol:
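IC50 derived from the proportion of phosphorylated 5-FAM peptide, separated from unphosphorylated peptide by microfluidic mobility shift. Compound was first preincubated 15 min at room temperature with 2.5 nmol/L kinase at pH 7.5, then 43.1 μmol/L ATP plus 4.25 μmol/L substrate reacted 120 min at 25 °C.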

For test [2], the target named is T2, GST fusion human ERK2 protein. Nature of the test: ERK2 enzyme assay (2). The settings on record: read-out: ERK2 enzyme inhibitory activity (2). The method, boiled down: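 IC50 values come from mobility-shift measurement of phosphorylated versus unphosphorylated 5-FAM peptide substrate after EDTA quench. Beforehand, compound and 1.25 nmol/L E. coli-expressed GST–human ERK2 stood 15 min at room temperature (pH 7.5), then 1 mmol/L ATP and 4.25 μmol/L substrate (final) were added for 120 min at 25 °C.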

Where [3] appears, read: 2.5 nmol/L ERK2, ATP 43.1 μmol/L.

T2 sequence (P28482 whole entry, the tested form may be a part): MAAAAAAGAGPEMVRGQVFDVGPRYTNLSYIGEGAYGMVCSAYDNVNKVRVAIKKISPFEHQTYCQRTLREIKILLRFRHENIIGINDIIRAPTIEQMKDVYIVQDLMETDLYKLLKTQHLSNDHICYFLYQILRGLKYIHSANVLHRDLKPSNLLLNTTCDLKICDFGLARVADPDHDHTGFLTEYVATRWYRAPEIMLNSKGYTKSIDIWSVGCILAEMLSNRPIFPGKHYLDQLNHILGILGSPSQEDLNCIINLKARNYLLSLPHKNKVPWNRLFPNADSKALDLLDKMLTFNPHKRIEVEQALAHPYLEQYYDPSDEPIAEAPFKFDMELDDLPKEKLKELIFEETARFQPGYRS
T1 sequence (P42336 whole entry): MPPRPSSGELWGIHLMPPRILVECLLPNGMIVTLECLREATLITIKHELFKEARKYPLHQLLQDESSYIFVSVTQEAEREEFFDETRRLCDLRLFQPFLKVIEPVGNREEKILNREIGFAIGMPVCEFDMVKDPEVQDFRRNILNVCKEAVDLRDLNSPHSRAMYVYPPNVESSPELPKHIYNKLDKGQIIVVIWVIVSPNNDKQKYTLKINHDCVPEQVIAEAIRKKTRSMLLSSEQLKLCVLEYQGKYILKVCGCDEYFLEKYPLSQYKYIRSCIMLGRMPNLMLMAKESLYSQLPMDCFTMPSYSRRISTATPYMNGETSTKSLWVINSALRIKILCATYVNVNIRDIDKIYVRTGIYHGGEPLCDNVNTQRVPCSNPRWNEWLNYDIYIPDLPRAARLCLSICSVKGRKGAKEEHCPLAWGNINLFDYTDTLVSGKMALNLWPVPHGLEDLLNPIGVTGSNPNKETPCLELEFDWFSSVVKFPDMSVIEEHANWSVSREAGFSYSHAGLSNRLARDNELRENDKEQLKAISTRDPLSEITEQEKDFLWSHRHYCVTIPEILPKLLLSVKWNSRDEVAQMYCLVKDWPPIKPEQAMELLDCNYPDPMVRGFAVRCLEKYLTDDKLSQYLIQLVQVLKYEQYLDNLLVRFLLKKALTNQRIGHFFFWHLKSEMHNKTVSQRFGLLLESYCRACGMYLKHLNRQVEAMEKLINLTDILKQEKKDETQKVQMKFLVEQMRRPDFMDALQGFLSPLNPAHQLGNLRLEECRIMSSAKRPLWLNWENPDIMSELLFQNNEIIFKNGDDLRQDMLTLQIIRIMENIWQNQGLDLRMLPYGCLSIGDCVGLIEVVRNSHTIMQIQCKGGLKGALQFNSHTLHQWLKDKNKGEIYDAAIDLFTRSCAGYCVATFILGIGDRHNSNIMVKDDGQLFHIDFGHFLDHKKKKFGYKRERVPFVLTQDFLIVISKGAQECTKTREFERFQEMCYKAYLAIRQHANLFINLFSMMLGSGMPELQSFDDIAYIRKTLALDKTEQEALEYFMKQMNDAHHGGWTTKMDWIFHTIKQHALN
T1 sequence (P27986 whole entry partner): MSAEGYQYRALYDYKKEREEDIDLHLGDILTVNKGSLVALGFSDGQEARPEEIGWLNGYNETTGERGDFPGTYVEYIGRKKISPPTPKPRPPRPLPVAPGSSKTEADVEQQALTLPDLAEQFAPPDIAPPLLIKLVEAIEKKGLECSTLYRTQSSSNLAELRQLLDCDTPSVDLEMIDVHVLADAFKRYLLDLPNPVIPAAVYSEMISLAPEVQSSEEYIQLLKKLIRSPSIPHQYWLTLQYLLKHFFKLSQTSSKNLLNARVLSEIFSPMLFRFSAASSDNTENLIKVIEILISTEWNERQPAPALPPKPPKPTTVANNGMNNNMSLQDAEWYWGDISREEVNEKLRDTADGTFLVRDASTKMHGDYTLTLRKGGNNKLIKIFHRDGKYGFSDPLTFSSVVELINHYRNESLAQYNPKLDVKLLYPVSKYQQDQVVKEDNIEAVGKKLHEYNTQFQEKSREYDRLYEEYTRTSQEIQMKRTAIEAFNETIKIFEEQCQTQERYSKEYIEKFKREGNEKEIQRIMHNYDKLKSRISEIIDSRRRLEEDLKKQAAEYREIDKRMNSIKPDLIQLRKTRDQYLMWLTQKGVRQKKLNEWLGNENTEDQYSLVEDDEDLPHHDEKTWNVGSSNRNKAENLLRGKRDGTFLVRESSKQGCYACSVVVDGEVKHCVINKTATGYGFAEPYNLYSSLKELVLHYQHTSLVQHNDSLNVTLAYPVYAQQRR

As to `CC(C)c1cnnc(Nc2ccc3ncc(-c4cnn(C)c4)nc3n2)c1` [Example 0014, N-(5-isopropylpyridazin-3-yl)-3-(1-methyl-1H-pyrazol-4-yl)pyrido[2,3-b]pyrazine-6-amine], the IC50 is less than 1000 nM on human PI3Kα protein; less than 1000 nM in test [1] (setting [3]); less than 1000 nM in test [2] (1.25 nmol/L ERK2, ATP 1 mmol/L).
As for `c1nc2ccc(Nc3cc(C4CCCC4)cnn3)nc2cc1-c1cnn(CCCN2CCCC2)c1` [Example 0016], the IC50 at human PI3Kα protein is less than 1000 nM; in test [1] (setting [3]), less than 1000 nM; in test [2] (1.25 nmol/L ERK2, ATP 1 mmol/L), less than 1000 nM.
For the molecule `c1nc2ccc(Nc3cc(C4CCCCC4)cnn3)nc2cc1-c1cnn(CCCN2CCCC2)c1` [Example 0017], the IC50 at human PI3Kα protein is less than 1000 nM; in test [1] (setting [3]), less than 1000 nM; in test [2] (1.25 nmol/L ERK2, ATP 1 mmol/L) it was less than 1000 nM.
For the molecule `CC(C)c1cnnc(Nc2ccc3ncc(-c4cnn(CCCN5CCN(C)CC5)c4)cc3n2)c1` [Example 0021, N-(5-isopropylpyridazin-3-yl)-7-(1-(3-(4-methylpiperazin-1-yl)propyl)-1H-pyrazol-4-yl)-1,5-naphthyridine-2-amine], the IC50 is less than 1000 nM on human PI3Kα protein; less than 1000 nM in test [1] (setting [3]); less than 1000 nM in test [2] (1.25 nmol/L ERK2, ATP 1 mmol/L).
For `C[Si](C)(C)CCOCn1cc(-c2cnc3ccc(Nc4nncs4)nc3c2)cn1` [Example 0025, N-(7-(1-((2-(trimethylsilyl)ethoxy)methyl)-1H-pyrazol-4-yl)-1,5-naphthyridin-2-yl)-1,3,4-thiadiazole-2-amine], the IC50 on human PI3Kα protein is 1000 to 10000 nM; in test [1] (setting [3]), less than 1000 nM; in test [2] (1.25 nmol/L ERK2, ATP 1 mmol/L), less than 1000 nM.
For the molecule `Cn1cc(-c2cnc3ccc(Nc4nncs4)nc3c2)cn1` [Example 0026, N-(7-(1-methyl-1H-pyrazol-4-yl)-1,5-naphthyridin-2-yl)-1,3,4-thiadiazole-2-amine], the IC50 on human PI3Kα protein is less than 1000 nM; in test [1] (setting [3]), less than 1000 nM; in test [2] (1.25 nmol/L ERK2, ATP 1 mmol/L), less than 1000 nM.
As for `c1nnc(Nc2ccc3ncc(-c4cn[nH]c4)cc3n2)s1` [Example 0032, N-(7-(1H-pyrazol-4-yl)-1,5-naphthyridin-2-yl)-1,3,4-thiadiazole-2-amine hydrochloride], the IC50 at human PI3Kα protein is less than 1000 nM; in test [1] (setting [3]) it was less than 1000 nM; in test [2] (1.25 nmol/L ERK2, ATP 1 mmol/L), less than 1000 nM.
As for `CN(c1cccnc1)c1cnc2ccc(Nc3nnc(C4CCCC4)s3)nc2c1` [Example 0071], the IC50 on human PI3Kα protein was less than 1000 nM; in test [1] (setting [3]), less than 1000 nM; in test [2] (1.25 nmol/L ERK2, ATP 1 mmol/L), less than 1000 nM.
Consider `COc1cncc(Nc2cnc3ccc(Nc4nnc(C5CCCC5)s4)nc3c2)c1` [Example 0072], for which the IC50 on human PI3Kα protein was less than 1000 nM; in test [1] (setting [3]) it was less than 1000 nM; in test [2] (1.25 nmol/L ERK2, ATP 1 mmol/L), less than 1000 nM.
As to `c1ncc(OCCCN2CCOCC2)cc1Nc1cnc2ccc(Nc3nnc(C4CCCC4)s3)nc2c1` [Example 0084], the IC50 at human PI3Kα protein was less than 1000 nM; in test [1] (setting [3]) it was less than 1000 nM; in test [2] (1.25 nmol/L ERK2, ATP 1 mmol/L) it was less than 1000 nM.
For `c1cc(CN2CCOCC2)ncc1Nc1cnc2ccc(Nc3nnc(C4CCCC4)s3)nc2c1` [Example 0085], the IC50 on human PI3Kα protein is less than 1000 nM; in test [1] (setting [3]) it was less than 1000 nM; in test [2] (1.25 nmol/L ERK2, ATP 1 mmol/L), less than 1000 nM.
Take `c1cc(CN2CCCC2)ncc1Nc1cnc2ccc(Nc3nnc(C4CCCC4)s3)nc2c1` [Example 0086]: the IC50 at human PI3Kα protein was less than 1000 nM; in test [1] (setting [3]), less than 1000 nM; in test [2] (1.25 nmol/L ERK2, ATP 1 mmol/L), less than 1000 nM.
Regarding `c1ncc(OCCCN2CCCC2)cc1Nc1cnc2ccc(Nc3nnc(C4CCCC4)s3)nc2c1` [Example 0087], the IC50 on human PI3Kα protein is less than 1000 nM; in test [1] (setting [3]) it was less than 1000 nM; in test [2] (1.25 nmol/L ERK2, ATP 1 mmol/L), less than 1000 nM.
`c1cc(Nc2cnc3ccc(Nc4nnc(C5CCCC5)s4)nc3c2)cnn1` [Example 0088]: the IC50 on human PI3Kα protein is less than 1000 nM; in test [1] (setting [3]) it was less than 1000 nM; in test [2] (1.25 nmol/L ERK2, ATP 1 mmol/L), less than 1000 nM.
Consider `c1ncc(Nc2cnc3ccc(Nc4nnc(C5CCCC5)s4)nc3c2)cn1` [Example 0089], for which the IC50 at human PI3Kα protein is less than 1000 nM; in test [1] (setting [3]), less than 1000 nM; in test [2] (1.25 nmol/L ERK2, ATP 1 mmol/L), less than 1000 nM.
For `c1ncc(N2CCOCC2)cc1Nc1cnc2ccc(Nc3nnc(C4CCCC4)s3)nc2c1` [Example 0090], the IC50 at human PI3Kα protein is less than 1000 nM; in test [1] (setting [3]), less than 1000 nM; in test [2] (1.25 nmol/L ERK2, ATP 1 mmol/L), less than 1000 nM.
Take `c1nc2ccc(Nc3nnc(C4CCCC4)s3)nc2cc1N1CCn2cnnc2C1` [Example 0091]: the IC50 on human PI3Kα protein was less than 1000 nM; in test [1] (setting [3]) it was less than 1000 nM; in test [2] (1.25 nmol/L ERK2, ATP 1 mmol/L), less than 1000 nM.
Consider `COC1CN(c2cnc3ccc(Nc4nnc(C5CCCC5)s4)nc3c2)C1` [Example 0092], for which the IC50 was 1000 to 10000 nM on human PI3Kα protein; less than 1000 nM in test [1] (setting [3]); less than 1000 nM in test [2] (1.25 nmol/L ERK2, ATP 1 mmol/L).
For `c1cc(OC2CCOCC2)ncc1Nc1cnc2ccc(Nc3nnc(C4CCCC4)s3)nc2c1` [Example 0093], the IC50 at human PI3Kα protein was 1000 to 10000 nM; in test [1] (setting [3]) it was less than 1000 nM; in test [2] (1.25 nmol/L ERK2, ATP 1 mmol/L), 10000 to 50000 nM.
For the molecule `c1ccc2ncc(Nc3cnc4ccc(Nc5nnc(C6CCCC6)s5)nc4c3)cc2c1` [Example 0094], the IC50 on human PI3Kα protein is less than 1000 nM; in test [1] (setting [3]) it was 10000 to 50000 nM; in test [2] (1.25 nmol/L ERK2, ATP 1 mmol/L) it was 10000 to 50000 nM.
Regarding `CC(C)c1nnc(Nc2ccc3ncc(Nc4cncnc4)cc3n2)s1` [Example 0095], the IC50 was less than 1000 nM on human PI3Kα protein; less than 1000 nM in test [1] (setting [3]); 1000 to 10000 nM in test [2] (1.25 nmol/L ERK2, ATP 1 mmol/L).
Turning to `CC(C)c1nnc(Nc2ccc3ncc(Nc4ccc(CN5CCOCC5)nc4)cc3n2)s1` [Example 0096], the IC50 on human PI3Kα protein is less than 1000 nM; in test [1] (setting [3]), less than 1000 nM; in test [2] (1.25 nmol/L ERK2, ATP 1 mmol/L), less than 1000 nM.
As to `c1cnc2[nH]cc(-c3cnc4ccc(Nc5nnc(C6CCCC6)s5)nc4c3)c2c1` [Example 0111], the IC50 was less than 1000 nM in test [1] (setting [3]) and less than 1000 nM in test [2] (1.25 nmol/L ERK2, ATP 1 mmol/L).
Regarding `CCCc1nn(C)cc1-c1cnc2ccc(Nc3nnc(C4CCCC4)s3)nc2c1` [Example 0112], the IC50 is less than 1000 nM on human PI3Kα protein; less than 1000 nM in test [1] (setting [3]); less than 1000 nM in test [2] (1.25 nmol/L ERK2, ATP 1 mmol/L).
For `Cn1cc(-c2cnc3ccc(Nc4nnc(C5CCCC5)s4)nc3c2)c2cccnc21` [Example 0113], the IC50 was less than 1000 nM in test [1] (setting [3]) and less than 1000 nM in test [2] (1.25 nmol/L ERK2, ATP 1 mmol/L).
Regarding `COc1nn(C)cc1-c1cnc2ccc(Nc3nnc(C4CCCC4)s3)nc2c1` [Example 0114], the IC50 at human PI3Kα protein was less than 1000 nM; in test [1] (setting [3]), less than 1000 nM; in test [2] (1.25 nmol/L ERK2, ATP 1 mmol/L), less than 1000 nM.
`CCCCc1nn(C)cc1-c1cnc2ccc(Nc3nnc(C4CCCC4)s3)nc2c1` [Example 0115]: the IC50 was less than 1000 nM at human PI3Kα protein; less than 1000 nM in test [1] (setting [3]); less than 1000 nM in test [2] (1.25 nmol/L ERK2, ATP 1 mmol/L).
As for `c1nc(CN2CCOCC2)ncc1Nc1cnc2ccc(Nc3nnc(C4CCCC4)s3)nc2c1` [Example 0116], the IC50 on human PI3Kα protein was less than 1000 nM; in test [1] (setting [3]), less than 1000 nM; in test [2] (1.25 nmol/L ERK2, ATP 1 mmol/L), less than 1000 nM.
Turning to `c1nc2ccc(Nc3nnc(C4CCCC4)s3)nc2cc1-c1cnn(CCCN2CCOCC2)c1` [Example 0117], the IC50 at human PI3Kα protein was less than 1000 nM; in test [1] (setting [3]) it was less than 1000 nM; in test [2] (1.25 nmol/L ERK2, ATP 1 mmol/L) it was less than 1000 nM.
As for `CC(C)c1nnc(Nc2ccc3ncc(-c4cnn(CCCN5CCOCC5)c4)cc3n2)s1` [Example 0118], the IC50 at human PI3Kα protein is less than 1000 nM; in test [1] (setting [3]), less than 1000 nM; in test [2] (1.25 nmol/L ERK2, ATP 1 mmol/L), less than 1000 nM.
Take `Cc1nn(C)cc1-c1cnc2ccc(Nc3nnc(C(C)C)s3)nc2c1` [Example 0120]: the IC50 on human PI3Kα protein was less than 1000 nM; in test [1] (setting [3]) it was less than 1000 nM; in test [2] (1.25 nmol/L ERK2, ATP 1 mmol/L), less than 1000 nM.
For `CCc1nn(C)cc1-c1cnc2ccc(Nc3nnc(C(C)C)s3)nc2c1` [Example 0121], the IC50 on human PI3Kα protein was less than 1000 nM; in test [1] (setting [3]), less than 1000 nM; in test [2] (1.25 nmol/L ERK2, ATP 1 mmol/L) it was less than 1000 nM.
Consider `CCCc1nnc(Nc2ccc3ncc(-c4cnn(C)c4)cc3n2)s1` [Example 0169, N-(7-(1-methyl-1H-pyrazol-4-yl)-1,5-naphthyridin-2-yl)-5-propyl-1,3,4-thiadiazole-2-amine], for which the IC50 is less than 1000 nM in test [1] (setting [3]) and less than 1000 nM in test [2] (1.25 nmol/L ERK2, ATP 1 mmol/L).
`Cn1cc(-c2cnc3ccc(Nc4nnc(C5CCCCC5)s4)nc3c2)cn1` [Example 0217, 5-Cyclohexyl-N-(7-(1-methyl-1H-pyrazol-4-yl)-1,5-naphthyridin-2-yl)-1,3,4-thiadiazole-2-amine]: the IC50 in test [1] (ERK2 enzyme assay (1)) and in test [2] (ERK2 enzyme assay (2)) was less than 1000 nM each time.
For `Cn1cc(-c2cc3nc(Nc4nnc(C5CCCC5)s4)ccc3nc2Cl)cn1` [Example 0349, N-(6-chloro-7-(1-methyl-1H-pyrazol-4-yl)-1,5-naphthyridin-2-yl)-5-cyclopentyl-1,3,4-thiadiazole-2-amine], the IC50 in test [1] (ERK2 enzyme assay (1)) was less than 1000 nM; in test [2] (ERK2 enzyme assay (2)), 1000 to 10000 nM.
With `CCOc1nc2ccc(Nc3nnc(C4CCCC4)s3)nc2cc1-c1cnn(C)c1` [Example 0357, 5-Cyclopentyl-N-(6-ethoxy-7-(1-methyl-1H-pyrazol-4-yl)-1,5-naphthyridin-2-yl)-1,3,4-thiadiazole-2-amine], the IC50 in test [1] (ERK2 enzyme assay (1)) and in test [2] (ERK2 enzyme assay (2)) was 1000 to 10000 nM throughout.
